The text below walks through data of US20180140578A1, “METHODS AND COMPOSITIONS FOR THE DIAGNOSIS AND SELECTIVE TREATMENT OF CANCER” (Board of Regents of the University of Texas System, priority 2016, published 2018).

Structures are written as SMILES. Where two headings read alike, the source gives them in different places.

For assay [1], the system named is pre-mRNA splicing in HCT-116 cells. Briefly: RNA-seq analysis of splicing changes, parental HCT-116. Format: cell-based, human. The following applies: 2 μM indisulam. An excerpt:
RNAs were extracted using Quick-RNA MiniPrep kit (Zymo Research). After cleaning up genomic DNA contaminant with Turbo DNase (Life Technologies) and rRNA depletion, strand-specific cDNA libraries were generated using the TruSeq Stranded mRNA Sample Prep Kit (IIlumina) and were subjected to high throughput sequencing using
HiSeq2500 platform (Illumina) with 100-bp single-end reads. NGS QC Toolkit (v2.3.1) (49) was used to check the sequencing quality, and high-quality reads were aligned by TopHat (v2.0.8) (50) to human reference genome (hg19) along with the gene annotation data downloaded from Illumina's iGenomes (support.illumina.com/sequencing/sequencing_software/igenome.ilmn). The insert-size metrics required in TopHat execution and the correctness of strand specificity were estimated by mapping reads to human transcript sequences using Bowtie (v2.1.0) (51) and Picard-tools (v1.99) (picard.sourceforge.net). The htseq-count script distributed with the HTSeq Python package (0.6.1) (pypi.python.org/pypi/HTSeq) was employed for counting reads in genes considering the coding strands. Source data for RNA sequencing data is available under NCBI SRA accession SRP096666.
For the stringent detection of differential skipped exons and retained introns, a custom program called SpliceFisher was developed and it is downloadable at github.com/jiwoongbio/SpliceFisher. Exonic and intronic regions were defined as annotated in the reference genome. To estimate differential exon skipping events, the numbers of exon-junction reads (panels a and b in FIG. 16) and exon-skipping reads (panel c in FIG. 16) observed in a sample were compared to the numbers observed in another sample. […] Additionally, the number of reads mapped to the target region (panel d in FIG. 16) and other exonic regions of the gene (panel e in FIG. 16) were also compared between samples. The read counts were evaluated by multiple Fisher's exact tests in three two-by-two tables using R and then the p-values were adjusted using FDR by each comparison type. Differential alternative splicing events were identified with all three adjusted p-values less than 0.01. The differential alternative splice sites and mutually exclusive exons were additionally detected by a similar method using the numbers of splicing reads supporting each junction.

Another assay relates to H650. Briefly: IC50 assay, NSCLC cell lines (Cell Titer Glo, total ATP). Format: cell-based, human. Conditions: U2AF1 WT (listed twice). On the procedure: (§1) Cells were plated at ˜15% confluence in a media comprising 5% concentration of fetal bovine serum supplemented with RPMI, which included 2 mM L-Glutamine in a 96 well dish. […] Following three days of incubation in a 5% CO2 incubator, the total ATP in each well was quantified using Cell Titer Glo (Promega). […] The solid lines represent the medians.

For a further assay, the system named is H2073. Described as above. Format: cell-based, human. On the procedure:
as §1

The target of assay [2] is T1, RBM39 G268V-3xFLAG with CUL4 complex (Homo sapiens, UniProt Q14498+Q66K64, G268V).
T1 construct: lysate derived from parental cells, RBM39-3xFLAG cells, or RBM39 G268V-3xFLAG cells; endogenous in cells; host or cells: HCT-116 RBM39 G268V-3xFLAG cells (treated cells in A91; lysates in A95)
Briefly: Co-immunoprecipitation of RBM39 G268V-3xFLAG from treated cells. Format: cell-based. Conditions: in the presence of indisulam. How it is done: (§2) Anti-Flag M2 antibody (Sigma-Aldrich) was coupled to Dynabeads M-270 epoxy beads (Life Technologies) at the ratio of 10 μg of antibody/mg beads. […] Frozen cells were then pulverized in the a cryomill (Retsch) with one 25 mm steel ball and five cycles of three min at 25 Hz with intermittent cooling in liquid nitrogen. […] The lysates were centrifuged at 8000 g for 5 min at 4° C. 12 mg of conjugated Anti-Flag magnetic beads were mixed with clarified lysates for 5 min at 4° C. on a rotating platform, followed by three washes with IP buffer. Bound proteins were eluted with 1 mg/ml 3xFLAG peptide, followed by SDS-PAGE on a 10% Bis Tris gel. After brief electrophoresis, bands containing all the proteins were cut with clean blades. For western blotting of co-immunoprecipitated proteins, anti-DDA1 (ProteinTech, 14995-1-AP, 1:1000), anti-DDB1 (Abcam, ab109027, 1;10000), anti-CUL4A (Cell Signaling, 2699, 1:1000), anti-CUL4B (ProteinTech, 12916-1-AP, 1:1000) were used.

A further assay addresses T2, RBM39-3xFLAG complex (Homo sapiens, UniProt Q14498+Q66K64).
T2 construct: endogenous in cells; host or cells: H1155 RBM39-3xFLAG knock-in cells
Briefly: Immunoprecipitation of RBM39 complex +/− indisulam, LC-MS/MS (Table 1). The following applies: H1155 RBM39-3xFLAG cells; 10 μM indisulam 2 hours. On the procedure:
as §2
Excised gel bands were cut into approximately 1 mm^3 pieces. Gel pieces were then subjected to a modified in-gel trypsin digestion procedure (46). Gel pieces were washed and dehydrated with acetonitrile for 10 min. followed by removal of acetonitrile. Pieces were then completely dried in a speed-vac. […] Peptides were detected, isolated, and fragmented to produce a tandem mass spectrum of specific fragment ions for each peptide. […]

For orientation: IC50 means the concentration that inhibits the measured activity by half. Regarding `NS(=O)(=O)c1ccc(S(=O)(=O)Nc2cccc3c(Cl)c[nH]c23)cc1` [Indisulam, indisulam], the exon skipping events in assay [1] (6 hours) is recorded as 327; in assay [1] (12 hours), 837. For the same molecule, the introns retained worked out at 107 in assay [1] (6 hours) and 303 in assay [1] (12 hours). Further, in the assay with H650 (H650), the “Indisulam IC50 (log 10)” value was −4.839 (log 10) (M). Moreover, the IC50 was 13.6 µM in the assay with H650 (Homo sapiens, NCI-H650, read-out: Indisulam IC50 (log 10), H650 (converted)); 13.6 µM in the assay on H650 (Homo sapiens, NCI-H650, read-out: Indisulam IC50, H650); 14.5 µM in the assay with H650 (read-out: Indisulam IC50, H650); 2.57 µM in the assay on H2073 (Homo sapiens, NCI-H2073, read-out: Indisulam IC50 (log 10) (converted), U2AF1 WT); 2.57 µM in the assay on H2073 (read-out: Indisulam IC50, U2AF1 WT). Further, in assay [2], the “recruitment of RBM39 G268V to the CUL4 complex” value is listed as “not recruited”. In addition, at RBM39-3xFLAG complex, the “recruitment of RBM39 to CUL4, DDB1, DDA1, DCAF15 CRL complex (shotgun mass spectrometry)” value is “induces recruitment of RBM39”.
